Experimental data published in a melting point compilation (Tetko et al.; mined from patent text by program, amines drawn as free bases though some values may be those of a salt).

Compound | melting point
NC(=O)c1nc(Cl)n2c1CN=C(c1ccccc1Cl)c1cc(Cl)ccc1-2 | 285 to 288 °C
C=NOC(C(=O)O)c1cccc(NC(=O)NCC(=O)N2C(c3ccccc3)CCC2c2ccccc2)c1 (centres undefined) | 194 °C
CS(=O)(=O)Nc1cccc(OCCCN2CCC(OC(c3ccccc3)c3ccccc3)CC2)c1 | 90 to 95.5 °C
CC1=Nc2ccccc2CN1C1CCC(=O)NC1=O (centres undefined) | 78 to 85 °C
CC(=O)NC[C@H]1CN(c2ccc(N3CCN(CCN4CCOCC4)CC3)c(F)c2)C(=O)O1 | 150 to 152 °C
CCOC(=O)CSc1ccc([N+](=O)[O-])cc1C1C(C(=O)OC)=C(C)N(C)C(C)=C1C(=O)OC | 118 °C
CCOC(=O)c1nnc(C(=O)OCC)nn1 | 85 to 90 °C
O=C(Cc1cnoc1-c1ccccc1)Nc1nc(-c2ccc(Cl)cc2)cs1 | 210 to 211 °C
C(=C(c1ccccc1)c1ccccc1)P(c1ccccc1)c1ccccc1 | 116 to 118 °C
CCCCCCCCc1ccc(C(=O)CCCCC(=O)O)cc1 | 96 to 97 °C
O=C(CCCN1CCC(c2ccccc2Cc2ccccc2)CC1)c1ccc(F)cc1 | 100 to 102 °C
CC(=O)SCC(Cc1ccccc1)C(=O)Nc1cccc(C(=O)N[C@@H](Cc2ccccc2)C(=O)OCc2ccccc2)c1 (some centres undefined) | 89 to 91 °C
CCOc1cc(C(=O)O)cc(N)c1C(=O)c1ccccc1 | 230 °C
O=C(c1cccc(OCc2ccccc2)c1)C(CCc1nnn[nH]1)c1ccccc1 (centres undefined) | 136 to 138 °C
Fc1ccc(OCc2cccc(Oc3ccnc(Cl)c3)n2)cc1 | 103 °C
C=CCNC(=O)C=C(C)N | 143 to 144 °C
CCCCCc1ccc(-c2ccc(N)cc2)nc1 | 60.3 to 61.3 °C
CCOC(=O)c1nccn1CCCCc1ccc(OCc2coc(/C=C/c3ccccc3)n2)cc1 | 96 to 97 °C
CC(=O)Nc1ccc(S(=O)(=O)Nc2ccn(C3CCCC3)c(=O)n2)cc1 | 219 to 228 °C
COc1cc(C)nc(NC(=O)NS(=O)(=O)c2ccsc2C2=CCCCC2)n1 | 190 to 192 °C

Compound | melting point
COCCCOc1ccc(-c2nc(C(=O)Nc3nccs3)c(-c3ccc(Cl)cc3)[nH]2)cc1 | 173 to 177 °C
C[C@](O)(COc1ccc(C#N)cc1)C(=O)Nc1ccc(C#N)c(C(F)(F)F)c1 | 92 to 94 °C
C=CCN1CCc2ccc(C(=O)CCC(=O)N3CCC(c4ccc(Cl)cc4)CC3)cc2CC1 | 136 to 137 °C
COCc1nc(N)nc(N)c1-c1cc(Cl)cc(Cl)c1 | 228 to 230 °C
CN(C)CCCn1c(-c2ccc(Br)cc2)csc1=Nc1ccccc1 | 110 to 111 °C
O=C(O)COc1ccc2c(-c3cc([N+](=O)[O-])ccc3F)noc2c1Cl | 238 to 240 °C
O=C(O)Cc1cc(Cl)cc(Cl)c1Cl | 125 to 133 °C
CC(C)(C)c1cc(Cl)c(Cl)cc1[N+](=O)[O-] | 80 °C
COc1ccc(Cl)c2c1CCCC2=O | 46 to 48 °C
CCCN(CCOc1c(Cl)cccc1Cl)C1CCc2c(ccc(OCc3ccc(OC(=O)C(C)C)cc3)c2OCc2ccc(OC(=O)C(C)C)cc2)C1 (centres undefined) | 84 to 86 °C
Cc1oc(-c2ccccc2)nc1COc1cccc(CSc2cccc(CC(=O)O)c2)c1 | 81 to 82 °C
O=S1(=O)CCC=C(O)c2cc(Cl)ccc21 | 166 to 168 °C
O=c1[nH]c2ccccc2n1CCCN1CCC(O)(c2ccc(Cl)c(C(F)(F)F)c2)CC1 | 189 °C
COc1nc(Cl)nc(NC#N)n1 | > 260 °C
Cc1nc(N2CCOCC2)sc1-c1ccnc(Nc2ccc(N3CCOCC3)cc2)n1 | 229 to 231 °C
CCOc1cc([C@@H]2CC=CC[C@H]2[N+](=O)[O-])ccc1OC (racemic) | 66 to 67 °C
CCCCCCCCCCCCCCCCCC(=O)NCNC(=O)CCSc1ccc(O)cc1 | 172 °C
CNC(=O)c1c(NC(=O)CCl)c(OC)c(C(=O)NC)c(NC(=O)CCl)c1OC | 146 to 148 °C
COC(=O)OC(C(=O)O)c1ccccc1 (centres undefined) | 103 to 105 °C
